Assay [1] concerns the target T1, hCRHR2 (Homo sapiens, UniProt Q13324).
T1 sequence (Q13324 1-411): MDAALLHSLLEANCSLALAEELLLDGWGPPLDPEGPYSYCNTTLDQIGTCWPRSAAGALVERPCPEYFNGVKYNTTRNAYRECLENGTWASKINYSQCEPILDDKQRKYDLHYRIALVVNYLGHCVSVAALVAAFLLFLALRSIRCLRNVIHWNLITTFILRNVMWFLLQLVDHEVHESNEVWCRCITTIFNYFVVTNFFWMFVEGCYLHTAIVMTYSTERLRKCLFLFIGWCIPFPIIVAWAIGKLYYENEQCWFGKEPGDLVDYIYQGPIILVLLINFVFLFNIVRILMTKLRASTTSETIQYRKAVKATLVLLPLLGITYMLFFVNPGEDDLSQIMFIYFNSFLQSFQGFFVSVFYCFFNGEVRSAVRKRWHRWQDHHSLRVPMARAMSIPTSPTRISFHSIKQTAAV
The assay can be described thus: HTRF cAMP assay, determination of hCRHR2 potency (peptide libraries 5 conc., purified peptides 11 conc.). It is filed as cell-based. In short, it runs like this: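 EC50 derived by variable-slope sigmoid regression of FRET-based cAMP data; cellular cAMP displaced d2-labelled tracer from cryptate anti-cAMP antibody. Stable human CRHR2 CHO-K1 suspension cells, revived from frozen stocks just before the run.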

The target of assay [2] is T2, hCRHR1 (Homo sapiens, UniProt P34998).
T2 sequence (P34998 24-415): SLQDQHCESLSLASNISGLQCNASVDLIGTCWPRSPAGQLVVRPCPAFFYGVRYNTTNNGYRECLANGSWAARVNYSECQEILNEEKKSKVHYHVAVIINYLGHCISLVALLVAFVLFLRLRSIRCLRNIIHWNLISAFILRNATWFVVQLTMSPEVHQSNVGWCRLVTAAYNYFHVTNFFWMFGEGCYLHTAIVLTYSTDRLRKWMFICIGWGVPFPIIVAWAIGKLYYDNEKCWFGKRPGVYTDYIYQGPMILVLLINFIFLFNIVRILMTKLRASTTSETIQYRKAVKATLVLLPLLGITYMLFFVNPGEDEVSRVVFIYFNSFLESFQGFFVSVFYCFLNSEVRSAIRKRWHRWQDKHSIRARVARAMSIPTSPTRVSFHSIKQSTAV
The assay can be described thus: HTRF cAMP assay, determination of hCRHR1 potency (peptide libraries 5 conc., purified peptides 11 conc.). Type of assay: cell-based. In short, it runs like this: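 Cellular cAMP was read by time-resolved FRET between d2-labelled cAMP and cryptate anti-cAMP antibody. The cells were freshly thawed suspension CHO-K1 cells stably expressing human CRHR1.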
On the technique in general: In TR-FRET formats the signal depends on donor and acceptor labels being close together.

Setting [3] is: library peptides, matched molecular pairs L vs Nle in position X^38, read-out: Potency hCRHR2 pEC50 (converted).
[4] abbreviates: library peptides, matched molecular pairs L vs Nle in position X^38, read-out: Potency hCRHR1 pEC50 (converted).
The mark [5] stands for this setting: Table 3, matched molecular pairs X^38 L vs Nle, peptide library of Example 4, read-out: hCRHR2 pEC50 (converted).
[6] abbreviates: Table 3, matched molecular pairs X^38 L vs Nle, peptide library of Example 4, read-out: hCRHR1 pEC50 (converted).

Where two headings read alike, the source gives them in different places. Starred links: 1 amine or outer side, 2 acyl side, 3 side chain; linkers in the order of their positions; H or OH if unused. Non-standard residues stand in square brackets, D forms with d. Residues, ends and D or L forms follow the SMILES beside them. Groups on a side chain read outwards from the residue. *: point of attachment. C20 diacid = O=C(O)CCCCCCCCCCCCCCCCCCC(=O)*; γGlu = O=C(O)[C@H](CCC(=O)[*:2])N[*:1]; NMeI = CC[C@H](C)[C@H](NC)C(=O)O; Nle = CCCC[C@H](N)C(=O)O; AEEA = NCCOCCOCC(=O)O; Aib = CC(C)(N)C(=O)O

For the compound `CCCC[C@H](NC(=O)[C@@H](NC(=O)[C@H](CCC(=O)O)NC(=O)C(C)(C)NC(=O)[C@H](CC(N)=O)NC(=O)[C@@H](NC(=O)[C@H](CCCCNC(=O)COCCOCCNC(=O)COCCOCCNC(=O)CC[C@H](NC(=O)CC[C@H](NC(=O)CCCCCCCCCCCCCCCCCCC(=O)O)C(=O)O)C(=O)O)NC(=O)[C@H](C)NC(=O)[C@H](CCC(N)=O)NC(=O)[C@H](CCC(=O)O)NC(=O)[C@H](CCCNC(=N)N)NC(=O)[C@H](C)NC(=O)[C@H](C)NC(=O)[C@H](CCCNC(=N)N)NC(=O)[C@H](C)NC(=O)[C@H](CCCNC(=N)N)NC(=O)[C@H](C)NC(=O)[C@H](CCC(N)=O)NC(=O)[C@H](CCCNC(=N)N)NC(=O)[C@H](CC(C)C)NC(=O)[C@H](CC(C)C)NC(=O)[C@@H](NC(=O)[C@H](CCC(N)=O)NC(=O)[C@H](CC(C)C)NC(=O)[C@H](CC(C)C)NC(=O)CNC(=O)[C@@H](NC(=O)[C@@H]1CCCN1C(=O)[C@@H](NC(=O)[C@H](CC(=O)O)NC(=O)[C@H](CC(C)C)NC(=O)[C@H](CO)NC(=O)[C@H](CC(C)C)NC(=O)[C@@H](NC(=O)[C@@H](NC)[C@@H](C)CC)C(C)C)C(C)C)[C@@H](C)CC)[C@@H](C)CC)[C@@H](C)O)[C@@H](C)CC)C(=O)N[C@@H](C)C(=O)N[C@@H](CCC(=O)O)C(=O)N[C@H](C(N)=O)C(C)C` [compound 198] (H-[NMeI]VLSLDVPIGLLQILLRQARARAAREQAK([AEEA-AEEA-γGlu-γGlu-C20 diacid])TN[Aib]EI[Nle]AEV-NH2), the EC50 in assay [1] (Table 4, library peptides having X^38 = Nle, read-out: hCRHR2 pEC50 (converted)) is 0.0316 nM; in assay [2] (Table 4, library peptides having X^38 = Nle, read-out: hCRHR1 pEC50 (converted)), 63100 nM.

For `CC[C@H](C)[C@H](N)C(=O)N[C@H](C(=O)N[C@@H](CC(C)C)C(=O)N[C@@H](CO)C(=O)N[C@@H](CC(C)C)C(=O)N[C@@H](CC(=O)O)C(=O)N[C@H](C(=O)N1CCC[C@H]1C(=O)N[C@H](C(=O)NCC(=O)N[C@@H](CC(C)C)C(=O)N[C@@H](CC(C)C)C(=O)N[C@@H](CCC(N)=O)C(=O)N[C@H](C(=O)N[C@@H](CC(C)C)C(=O)N[C@@H](CC(C)C)C(=O)N[C@@H](CCC(=O)O)C(=O)N[C@@H](CCC(N)=O)C(=O)N[C@@H](C)C(=O)N[C@@H](CCCNC(=N)N)C(=O)N[C@@H](C)C(=O)N[C@@H](CCC(N)=O)C(=O)N[C@@H](C)C(=O)N[C@@H](C)C(=O)N[C@@H](CCCNC(=N)N)C(=O)N[C@@H](CCC(=O)O)C(=O)N[C@@H](CCC(N)=O)C(=O)N[C@@H](C)C(=O)N[C@@H](CCCCNC(=O)COCCOCCNC(=O)COCCOCCNC(=O)CC[C@H](NC(=O)CC[C@H](NC(=O)CCCCCCCCCCCCCCCCCCC(=O)O)C(=O)O)C(=O)O)C(=O)N[C@H](C(=O)N[C@@H](CC(N)=O)C(=O)N[C@@H](C)C(=O)N[C@@H](CCC(=O)O)C(=O)N[C@H](C(=O)N[C@@H](CC(C)C)C(=O)N[C@@H](C)C(=O)N[C@@H](CCC(=O)O)C(=O)N[C@H](C(N)=O)C(C)C)[C@@H](C)CC)[C@@H](C)O)[C@@H](C)CC)[C@@H](C)CC)C(C)C)C(C)C` [compound 62] (H-IVLSLDVPIGLLQILLEQARAQAAREQAK([AEEA-AEEA-γGlu-γGlu-C20 diacid])TNAEILAEV-NH2), the results for the EC50 in assay [1] (setting [3]) and in assay [2] (setting [4]) were 0.316 nM and 25100 nM, respectively.

With `CCCC[C@H](NC(=O)[C@@H](NC(=O)[C@H](CCC(=O)O)NC(=O)[C@H](C)NC(=O)[C@H](CC(N)=O)NC(=O)[C@@H](NC(=O)[C@H](CCCCNC(=O)COCCOCCNC(=O)COCCOCCNC(=O)CC[C@H](NC(=O)CC[C@H](NC(=O)CCCCCCCCCCCCCCCCCCC(=O)O)C(=O)O)C(=O)O)NC(=O)[C@H](C)NC(=O)[C@H](CCC(N)=O)NC(=O)[C@H](CCC(=O)O)NC(=O)[C@H](CCCNC(=N)N)NC(=O)[C@H](C)NC(=O)[C@@H](NC(=O)[C@H](CCCNC(=N)N)NC(=O)[C@H](C)NC(=O)[C@H](CCCNC(=N)N)NC(=O)[C@H](C)NC(=O)[C@H](CCC(N)=O)NC(=O)[C@H](CCC(=O)O)NC(=O)[C@H](CC(C)C)NC(=O)[C@H](CC(C)C)NC(=O)[C@@H](NC(=O)[C@H](CCC(N)=O)NC(=O)[C@H](CC(C)C)NC(=O)[C@H](CC(C)C)NC(=O)CNC(=O)[C@@H](NC(=O)[C@@H]1CCCN1C(=O)[C@@H](NC(=O)[C@H](CC(=O)O)NC(=O)[C@H](CC(C)C)NC(=O)[C@H](CO)NC(=O)[C@H](CC(C)C)NC(=O)[C@@H](NC(=O)[C@@H](N)[C@@H](C)CC)C(C)C)C(C)C)[C@@H](C)CC)[C@@H](C)CC)C(C)C)[C@@H](C)O)[C@@H](C)CC)C(=O)N[C@@H](C)C(=O)N[C@@H](CCC(=O)O)C(=O)N[C@H](C(N)=O)C(C)C` [compound 91] (H-IVLSLDVPIGLLQILLEQARARVAREQAK([AEEA-AEEA-γGlu-γGlu-C20 diacid])TNAEI[Nle]AEV-NH2), the figures for the EC50 in assay [1] (setting [3]) and in assay [2] (setting [4]) were 0.398 nM and 1.58 nM, respectively.

For `CCCC[C@H](NC(=O)[C@@H](NC(=O)[C@H](CCC(=O)O)NC(=O)[C@H](C)NC(=O)[C@H](CC(N)=O)NC(=O)[C@@H](NC(=O)[C@H](CCCCNC(=O)COCCOCCNC(=O)COCCOCCNC(=O)CC[C@H](NC(=O)CC[C@H](NC(=O)CCCCCCCCCCCCCCCCCCC(=O)O)C(=O)O)C(=O)O)NC(=O)[C@H](C)NC(=O)[C@H](CCC(N)=O)NC(=O)[C@H](CCC(=O)O)NC(=O)[C@H](CCCNC(=N)N)NC(=O)[C@H](C)NC(=O)[C@H](C)NC(=O)[C@H](CCCNC(=N)N)NC(=O)[C@H](C)NC(=O)[C@H](CCCNC(=N)N)NC(=O)[C@H](C)NC(=O)[C@H](CCC(N)=O)NC(=O)[C@H](CCC(=O)O)NC(=O)[C@H](CC(C)C)NC(=O)[C@H](CC(C)C)NC(=O)[C@@H](NC(=O)[C@H](CCC(N)=O)NC(=O)[C@H](CC(C)C)NC(=O)[C@H](CC(C)C)NC(=O)CNC(=O)[C@@H](NC(=O)[C@@H]1CCCN1C(=O)[C@@H](NC(=O)[C@H](CC(=O)O)NC(=O)[C@H](CC(C)C)NC(=O)[C@H](CO)NC(=O)[C@H](CC(C)C)NC(=O)[C@@H](NC(=O)[C@@H](N)[C@@H](C)CC)C(C)C)C(C)C)[C@@H](C)CC)[C@@H](C)CC)[C@@H](C)O)[C@@H](C)CC)C(=O)N[C@@H](C)C(=O)N[C@@H](CCC(=O)O)C(=O)N[C@H](C(N)=O)C(C)C` [SEQ ID NO: 45] (H-IVLSLDVPIGLLQILLEQARARAAREQAK([AEEA-AEEA-γGlu-γGlu-C20 diacid])TNAEI[Nle]AEV-NH2), the EC50 is 0.251 nM in assay [1] (setting [5]); 0.52 nM in assay [1] (Table 5, purified peptides, read-out: hCRHR2 EC50); 200 nM in assay [2] (setting [6]). Further, in assay [1] (Table 5), the “Selectivity ratio (hCRHR1/ hCRHR2)” value is listed as 107.

In the case of `CCCC[C@H](NC(=O)[C@@H](NC(=O)[C@H](CCC(=O)O)NC(=O)[C@H](C)NC(=O)[C@H](CC(N)=O)NC(=O)[C@@H](NC(=O)[C@H](CCCCNC(=O)COCCOCCNC(=O)COCCOCCNC(=O)CC[C@H](NC(=O)CC[C@H](NC(=O)CCCCCCCCCCCCCCCCCCC(=O)O)C(=O)O)C(=O)O)NC(=O)[C@H](C)NC(=O)[C@H](CCC(N)=O)NC(=O)[C@H](CCC(=O)O)NC(=O)[C@H](CCCNC(=N)N)NC(=O)[C@H](CC(C)C)NC(=O)[C@H](C)NC(=O)[C@H](CCCNC(=N)N)NC(=O)[C@H](C)NC(=O)[C@H](CCCNC(=N)N)NC(=O)[C@H](C)NC(=O)[C@H](CCC(N)=O)NC(=O)[C@H](CCC(=O)O)NC(=O)[C@H](CC(C)C)NC(=O)[C@H](CC(C)C)NC(=O)[C@@H](NC(=O)[C@H](CCC(N)=O)NC(=O)[C@H](CC(C)C)NC(=O)[C@H](CC(C)C)NC(=O)CNC(=O)[C@@H](NC(=O)[C@@H]1CCCN1C(=O)[C@@H](NC(=O)[C@H](CC(=O)O)NC(=O)[C@H](CC(C)C)NC(=O)[C@H](CO)NC(=O)[C@H](CC(C)C)NC(=O)[C@@H](NC(=O)[C@@H](N)[C@@H](C)CC)C(C)C)C(C)C)[C@@H](C)CC)[C@@H](C)CC)[C@@H](C)O)[C@@H](C)CC)C(=O)N[C@@H](C)C(=O)N[C@@H](CCC(=O)O)C(=O)N[C@H](C(N)=O)C(C)C` [SEQ ID NO: 40] (H-IVLSLDVPIGLLQILLEQARARALREQAK([AEEA-AEEA-γGlu-γGlu-C20 diacid])TNAEI[Nle]AEV-NH2), the values for the EC50 in assay [1] (setting [5]) and in assay [2] (setting [6]) were 0.398 nM and 25.1 nM, respectively.

The values above are taken from EP4810052A2, “HCRHR2 SELECTIVE POLYPEPTIDES” (Gubra A/S, priority 2023, dated 2026).
